Assay results taken from patent US20040127492A1 (Pharmacia Corporation, priority 2002, published 2004).
Like-named read-outs stand apart in the source and are kept apart here. Blank lines part the entries; values can stand above or below the molecule they belong to.

Key:
MK-3 = MK-3 (Homo sapiens, UniProt Q16644); assay: MK-3 inhibition IC50 (similar method to MK-2, with appropriate modifications); format: biochemical
Method: In practice, the selectivity of a cyclic pyrazole MK-2 inhibitor varies depending upon the condition under which the test is performed and on the inhibitors being tested. However, for the purposes of this specification, the selectivity of a cyclic pyrazole MK-2 inhibitor inhibitor can be measured as a ratio of the in vitro or in vivo IC50 value for inhibition of MK-3, divided by the IC50 value for inhibition of MK-2 (IC50 MK-3/IC50 MK-2). […] The MK-2 or MK-3 inhibiting activity of any of the compounds described herein can be determined by any one of several methods that are well known to those having skill in the art of enzyme activity testing. […] A similar method, with appropriate modifications, Can be used to measure MK-3 inhibitory activity. In addition, the efficacy of one of the present MK-2 inhibiting compounds in therapeutic applications can be determined by testing for inhibition of TNFα production in cell culture and in animal model assays.

MAPKAPK2 (MK-2) = MAPKAPK2 (MK-2) (Homo sapiens, UniProt P49137); assay: Determination of MK-2 IC50 (HSP-peptide phosphorylation, anion exchange resin capture assay); format: biochemical
MAPKAPK2 (MK-2), sequence (P49137 whole entry, species assumed): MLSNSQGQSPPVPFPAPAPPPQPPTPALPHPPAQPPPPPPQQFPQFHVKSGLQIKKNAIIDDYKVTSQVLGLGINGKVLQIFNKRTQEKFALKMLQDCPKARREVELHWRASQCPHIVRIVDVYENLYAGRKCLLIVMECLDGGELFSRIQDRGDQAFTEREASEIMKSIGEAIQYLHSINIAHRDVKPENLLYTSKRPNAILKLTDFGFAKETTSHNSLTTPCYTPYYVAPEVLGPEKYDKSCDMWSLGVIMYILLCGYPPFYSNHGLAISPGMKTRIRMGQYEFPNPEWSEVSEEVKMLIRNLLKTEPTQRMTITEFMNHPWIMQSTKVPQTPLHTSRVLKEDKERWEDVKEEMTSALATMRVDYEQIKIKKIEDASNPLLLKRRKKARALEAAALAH
Method: Determination of MK-2 IC50:
Recombinant MAPKAPK2 was phosphorylated at a concentration of 42-78 μM by incubation with 0.23 μM of active p38α in 50 mM HEPES, 0.1 mM EDTA, 10 mM magnesium acetate, and 0.25 mM ATP, pH 7.5 for one hour at 30° C.
The phosphorylation of HSP-peptide ([…]) by MAPKAPK2 was measured using an anion exchange resin capture assay method. The reaction was carried out in 50 mM β-glycerolphosphate, 0.04% BSA, 10 mM magnesium acetate, 2% DMSO and 0.8 mM dithiotheritol, pH 7.5 in the presence of the HSP-peptide with 0.2 μCi [γ^33P]ATP and 0.03 mM ATP. The reaction was initiated by the addition of 15 nM MAPKAPK2 and was allowed to incubate at 30° C. for 30 min. The reaction was terminated and [γ^33P]ATP was removed from solution by the addition of 150 μl of AG 1×8 ion exchange resin in 900 mM sodium formate pH 3.0. A 50 μl aliquot of head volume was removed from the quenched reaction mixture and added to a 96-well plate, 150 μl of Microscint-40 (Packard) was added and the amount of phosphorylated-peptide was determined. Allow the Microscint to sit in the plates for 60 minutes prior to counting.
Compounds are evaluated as potential inhibitors of the MK-2 kinase by measuring their effects on MK-2 phosphorylation of the peptide substrate. Compounds may be screened initially at two concentrations prior to determination of IC50 values. Screening results are expressed as percent inhibition at the concentrations of compound tested. For IC50 value determinations, Compounds are tested at six concentrations in ten-fold serial dilutions with each concentration tested in triplicate. Results are expressed as IC50 values in micromolar. The assay is performed at a final concentration of 2% DMSO.

[1] = Table 2, pyrazolylpyrazole MK-2 inhibitors, read-out: MK-3 Avg. IC50
[2] = Table 2, pyrazolylpyrazole MK-2 inhibitors, read-out: MK-2 Avg. IC50
[3] = Table 1, phenoxypyrazole MK-2 inhibitors, read-out: MK-3 Avg. IC50
[4] = Table 1, phenoxypyrazole MK-2 inhibitors, read-out: MK-2 Avg, IC50
[5] = Table 4, pyrimidylpyrazole MK-2 inhibitors, read-out: NK-3 Avg. IC50
[6] = Table 4, pyrimidylpyrazole MK-2 inhibitors, read-out: MK-2 Avg. IC50
[7] = Table 5, other cyclic pyrazole MK-2 inhibiting compounds, read-out: MK-3 Avg. IC50
[8] = Table 5, other cyclic pyrazole MK-2 inhibiting compounds, read-out: MK-2 Avg. IC50

MK-3, sequence (Q16644 whole entry, species assumed): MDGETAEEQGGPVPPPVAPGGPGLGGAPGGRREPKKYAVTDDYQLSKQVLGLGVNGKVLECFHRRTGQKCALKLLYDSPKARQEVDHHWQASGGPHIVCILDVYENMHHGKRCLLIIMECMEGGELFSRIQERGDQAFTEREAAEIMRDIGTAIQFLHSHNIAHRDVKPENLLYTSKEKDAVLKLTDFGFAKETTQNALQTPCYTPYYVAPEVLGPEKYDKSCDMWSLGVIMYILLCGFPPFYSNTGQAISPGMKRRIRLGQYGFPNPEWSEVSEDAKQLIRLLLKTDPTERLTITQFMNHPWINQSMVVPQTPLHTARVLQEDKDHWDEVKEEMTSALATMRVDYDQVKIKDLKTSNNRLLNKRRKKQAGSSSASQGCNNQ

IC50 (MK-3; [1]): 47 µM
IC50 (MAPKAPK2 (MK-2); [2]): 1.06 µM
SMILES: CSc1n[nH]c2c1-c1nn(CCCN)c(C(=O)O)c1CC2 [Example 1]

IC50 (MK-3; [3]): 115 µM
IC50 (MAPKAPK2 (MK-2); [4]): 0.823 µM
SMILES: NCCCn1nc2c(c1C(=O)O)CCc1cc(O)c(-c3cccc([N+](=O)[O-])c3)cc1-2 [Example 1]

IC50 (MK-3; read-out: MK-3 Avg. IC50): 0.0354 µM
IC50 (MAPKAPK2 (MK-2); read-out: MK-2 Avg. IC50): 0.00946 µM
SMILES: NCCCn1nc2c(c1C(=O)O)CCc1cnc(-c3cnc4ccccc4c3)cc1-2 [Example 1]

IC50 (MK-3; [5]): 1.93 µM
IC50 (MAPKAPK2 (MK-2); [6]): 0.0761 µM
SMILES: NCCCn1nc2c(c1C(=O)O)CCc1cnc(-c3cnc4ccccc4c3)nc1-2 [Example 1]

IC50 (MK-3; [7]): 3.62 µM
IC50 (MAPKAPK2 (MK-2); [8]): 0.0211 µM
SMILES: O=C1NCCn2nc3c(c21)CCc1cnc(/C=C/c2cccc(O)c2)cc1-3 [Example 1]

IC50 (MK-3; [1]): 35.3 µM
IC50 (MAPKAPK2 (MK-2); [2]): 2.17 µM
SMILES: NCCCn1nc2c(c1C(=O)O)CCc1[nH]ncc1-2 [Example 2]

IC50 (MK-3; [5]): 4.61 µM
IC50 (MAPKAPK2 (MK-2); [6]): 0.295 µM
SMILES: NCCCn1nc2c(c1C(=O)O)CCc1cnc(-c3ccc4c(c3)OCO4)nc1-2 [Example 2]

IC50 (MK-3; read-out: MK-3 Avg. IC50): 0.142 µM
IC50 (MAPKAPK2 (MK-2); read-out: MK-2 Avg. IC50): 0.018 µM
SMILES: NCCCn1nc2c(c1C(=O)O)CCc1cnc(-c3cccc([N+](=O)[O-])c3)cc1-2 [Example 2]

IC50 (MK-3; [3]): 40.9 µM
IC50 (MAPKAPK2 (MK-2); [4]): 0.845 µM
SMILES: NCCn1nc2c(c1C(=O)O)CCc1cc(O)c(-c3cccc([N+](=O)[O-])c3)cc1-2 [Example 2]

IC50 (MK-3; read-out: MK-3 Avg. IC50): 0.361 µM
IC50 (MAPKAPK2 (MK-2); read-out: MK-2 Avg. IC50): 0.0189 µM
SMILES: NCCCn1nc2c(c1C(=O)O)CCc1cnc(-c3ccc(O)cc3)cc1-2 [Example 3]

IC50 (MK-3; [5]): 10.8 µM
IC50 (MAPKAPK2 (MK-2); [6]): 0.406 µM
SMILES: NCCCn1nc2c(c1C(=O)O)CCc1cnc(-c3ccccc3)nc1-2 [Example 3]

IC50 (MK-3; [1]): 20.8 µM
IC50 (MAPKAPK2 (MK-2); [2]): 2.23 µM
SMILES: O=C(O)c1c2c(nn1CCCNCCc1ccc(Br)cc1)-c1cn[nH]c1CC2 [Example 3]

IC50 (MK-3; [3]): > 200 µM
IC50 (MAPKAPK2 (MK-2); [4]): 1.48 µM
SMILES: O=C1NCCCn2nc3c(c21)CCc1cc(O)c(-c2cccc([N+](=O)[O-])c2)cc1-3 [Example 3]

IC50 (MK-3; [3]): 37.9 µM
IC50 (MAPKAPK2 (MK-2); [4]): 2.09 µM
SMILES: NCCCn1nc2c(c1C(=O)O)CCc1cc(O)ccc1-2 [Example 4]

IC50 (MK-3; read-out: MK-3 Avg. IC50): 0.55 µM
IC50 (MAPKAPK2 (MK-2); read-out: MK-2 Avg. IC50): 0.0194 µM
SMILES: NCCCn1nc2c(c1C(=O)O)CCc1cnc(-c3cccc(O)c3)cc1-2 [Example 4]

IC50 (MK-3; [1]): 63.3 µM
IC50 (MAPKAPK2 (MK-2); [2]): 2.43 µM
SMILES: NCCn1nc2c(c1C(=O)O)CCc1[nH]ncc1-2 [Example 4]

IC50 (MK-3; [7]): > 20 µM
IC50 (MAPKAPK2 (MK-2); [8]): 0.223 µM
SMILES: O=C1NCCn2nc3c(c21)CCc1cnc(/C=C/c2ccc4c(c2)OCO4)cc1-3 [Example 4]

IC50 (MK-3; [1]): 41.4 µM
IC50 (MAPKAPK2 (MK-2); [2]): 2.84 µM
SMILES: C=CCSc1n[nH]c2c1-c1nn(CCCN)c(C(=O)O)c1CC2 [Example 5]

IC50 (MK-3; [7]): 11.8 µM
IC50 (MAPKAPK2 (MK-2); [8]): 0.328 µM
SMILES: COc1cccc(/C=C/c2cc3c(cn2)CCc2c-3nn3c2C(=O)NCC3)c1 [Example 5]

IC50 (MK-3; read-out: MK-3 Avg. IC50): 0.0698 µM
IC50 (MAPKAPK2 (MK-2); read-out: MK-2 Avg. IC50): 0.023 µM
SMILES: NCCCn1nc2c(c1C(=O)O)CCc1cnc(-c3ccc4ccccc4c3)cc1-2 [Example 5]

IC50 (MK-3; [3]): > 200 µM
IC50 (MAPKAPK2 (MK-2); [4]): 2.14 µM
SMILES: NCCn1nc2c(c1C(=O)O)CCc1cc(O)c(Br)cc1-2 [Example 5]

IC50 (MK-3; [5]): 168 µM
IC50 (MAPKAPK2 (MK-2); [6]): 1.58 µM
SMILES: O=C1NCCCn2nc3c(c21)CCc1cnc(-c2cccnc2)nc1-3 [Example 5]

IC50 (MK-3; [1]): 22.1 µM
IC50 (MAPKAPK2 (MK-2); [2]): 2.89 µM
SMILES: NCCCn1nc2c(c1C(=O)O)CCc1[nH]nc(SCc3ccccc3)c1-2 [Example 6]

IC50 (MK-3; [3]): 38.2 µM
IC50 (MAPKAPK2 (MK-2); [4]): 2.29 µM
SMILES: NCCCn1nc2c(c1C(=O)O)CCc1cc(O)c(CCc3ccc(Cl)cc3)cc1-2 [Example 6]

IC50 (MK-3; read-out: MK-3 Avg. IC50): 0.135 µM
IC50 (MAPKAPK2 (MK-2); read-out: MK-2 Avg. IC50): 0.028 µM
SMILES: NCCCn1nc2c(c1C(=O)O)CCc1cnc(-c3cc(F)cc(F)c3)cc1-2 [Example 6]

IC50 (MK-3; [5]): 154 µM
IC50 (MAPKAPK2 (MK-2); [6]): 2.16 µM
SMILES: O=C(O)c1c2c(nn1CCCNC(c1ccccc1)(c1ccccc1)c1ccccc1)-c1nc(-c3cnc4ccccc4c3)ncc1CC2 [Example 6]

IC50 (MK-3; [7]): > 20 µM
IC50 (MAPKAPK2 (MK-2); [8]): 0.536 µM
SMILES: O=C1NCCn2nc3c(c21)CCc1cnc(/C=C/c2ccc(Cl)cc2)cc1-3 [Example 6]

IC50 (MK-3; read-out: MK-3 Avg. IC50): 0.269 µM
IC50 (MAPKAPK2 (MK-2); read-out: MK-2 Avg. IC50): 0.0296 µM
SMILES: NCCCn1nc2c(c1C(=O)O)CCc1cnc(-c3ccc4c(c3)OCO4)cc1-2 [Example 7]
